The record followed here is ChEMBL document CHEMBL1128209, “Cyclooxygenase-2 inhibitors. Synthesis and pharmacological activities of 5-methanesulfonamido-1-indanone derivatives” (J Med Chem, 1995).

The target of data set [1] is T1, Prostaglandin G/H synthase 2 (Homo sapiens, UniProt P35354).
T1 sequence (P35354 whole entry): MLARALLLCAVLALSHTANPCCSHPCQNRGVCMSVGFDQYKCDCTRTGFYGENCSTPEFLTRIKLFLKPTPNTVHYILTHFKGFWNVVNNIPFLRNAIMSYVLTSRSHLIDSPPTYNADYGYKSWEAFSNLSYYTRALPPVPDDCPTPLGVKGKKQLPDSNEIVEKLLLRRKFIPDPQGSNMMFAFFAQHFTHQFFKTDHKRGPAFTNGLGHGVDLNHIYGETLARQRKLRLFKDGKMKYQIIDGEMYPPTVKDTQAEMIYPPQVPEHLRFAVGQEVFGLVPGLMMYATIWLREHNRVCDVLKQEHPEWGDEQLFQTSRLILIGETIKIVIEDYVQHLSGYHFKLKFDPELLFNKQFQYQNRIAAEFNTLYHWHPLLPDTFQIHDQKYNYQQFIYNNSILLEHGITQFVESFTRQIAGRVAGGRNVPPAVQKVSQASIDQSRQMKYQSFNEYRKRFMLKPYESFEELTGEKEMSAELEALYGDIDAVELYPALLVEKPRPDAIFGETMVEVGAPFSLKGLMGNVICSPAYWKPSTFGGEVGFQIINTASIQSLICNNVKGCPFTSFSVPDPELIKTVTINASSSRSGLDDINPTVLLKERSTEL
Description: In vitro inhibition of prostaglandin G/H synthase 2 expressed in human osteosarcoma 143 cells. It counts as cell-based.

In data set [2] the target is Prostaglandin G/H synthase 1 (Homo sapiens, UniProt P23219). The data set is described as follows: Inhibition of Prostaglandin G/H synthase 1 in human U937 cells. It counts as cell-based, U-937.
Sequence of Prostaglandin G/H synthase 1 (P23219 whole entry): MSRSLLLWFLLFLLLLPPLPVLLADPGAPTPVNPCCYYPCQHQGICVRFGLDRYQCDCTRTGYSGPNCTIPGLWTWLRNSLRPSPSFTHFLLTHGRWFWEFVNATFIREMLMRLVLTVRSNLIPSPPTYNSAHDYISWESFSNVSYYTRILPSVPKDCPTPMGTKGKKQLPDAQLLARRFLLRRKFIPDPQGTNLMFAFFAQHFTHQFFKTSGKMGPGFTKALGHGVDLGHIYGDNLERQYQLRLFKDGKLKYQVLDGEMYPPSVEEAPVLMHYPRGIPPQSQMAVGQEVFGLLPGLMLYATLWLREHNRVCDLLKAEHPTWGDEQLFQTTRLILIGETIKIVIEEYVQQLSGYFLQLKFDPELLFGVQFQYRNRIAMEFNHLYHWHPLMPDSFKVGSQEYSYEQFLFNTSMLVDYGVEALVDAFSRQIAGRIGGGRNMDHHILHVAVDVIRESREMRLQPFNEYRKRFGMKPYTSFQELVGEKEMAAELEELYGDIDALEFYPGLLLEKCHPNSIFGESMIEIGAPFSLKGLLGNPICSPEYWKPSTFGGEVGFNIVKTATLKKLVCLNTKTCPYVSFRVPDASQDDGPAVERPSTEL
A short description of data set [3]: Bioavailability in rat. It counts as ADME, organism-based. To be noted: in vivo.
The test system of data set [4] is Rattus norvegicus. Description: In vivo antiinflammatory activity by the Carrageenan-induced rat paw edema assay. It counts as functional.
Data set [5] is described as follows: Plasma clearance rate was determined for the compound in squirrel monkeys. Conditions: saimiri. It counts as ADME, organism-based.
The nature of data set [6]: Plasma clearance rate was determined for the compound in rats. To be noted: rat. It counts as ADME, organism-based.
Data set [7] can be described thus: Plasma terminal half life in squirrel monkeys at a dose of 1 mg/kg administered intravenously. It counts as ADME, organism-based. Also noted: dose 1 mg/kg, route intravenous. Conditions: saimiri, iv.
Data set [8] is described as follows: Bioavailability in squirrel monkey. It counts as ADME, organism-based, Saimiri sciureus. Conditions: in vivo.
Data set [9] concerns Rattus norvegicus. Description: In vivo antiinflammatory activity by the Carrageenan-induced rat paw edema assay. It counts as functional.
Data set [10] deals with T2, Prostaglandin G/H synthase 2 (Homo sapiens) (UniProt P35354).
T2 sequence (whole entry): T1 sequence (P35354 whole entry)
The data set is described as follows: Ability to inhibit the Prostaglandin G/H synthase 2 expressed in human osteosarcoma 143 cells, in vitro. It counts as cell-based. Conditions: concentration not given here.

A short description of data set [11]: Plasma Clearance rate was determined for the compound in rats. It counts as ADME, organism-based. To be noted: rat.
Data set [12] can be described thus: Plasma Clearance rate was determined for the compound in squirrel monkeys. It counts as ADME, organism-based. To be noted: saimiri.
For data set [13], the system named is Rattus norvegicus. The data set is described as follows: In vivo antipyretic activity by endotoxin-induced rat pyresis assay. It counts as functional.
In data set [14] the test system is Rattus norvegicus. Description: In vivo antiinflammatory activity by the Carrageenan-induced rat paw hyperalgesia assay. It counts as functional. Background: Carrageenan injected into the paw causes an acute inflammation.

Consider `CS(=O)(=O)Nc1cc2c(cc1Nc1ccc(F)cc1F)C(=O)CC2`, for which the half-maximal inhibitory concentration (IC50) (as a rule, the concentration that inhibits the measured activity by half) in data set [1] amounted to 1000 nM.
For `CSc1ccc(Oc2cc3c(cc2NS(C)(=O)=O)CCC3=O)cc1`, the IC50 in data set [1] came out at 100 nM.
As for `CCS(=O)(=O)Nc1cc2c(cc1Sc1ccc(F)cc1F)C(=O)CC2`, the IC50 in data set [2] and in data set [1] was greater than 10000 nM each time.
`CS(=O)(=O)Nc1cc2c(cc1Sc1cccs1)C(=O)CC2` registered a concentration for half-maximal inhibition (IC50) in [1] of 1000 nM.
Take `CS(=O)(=O)Nc1cc2c(cc1Cc1ccc(F)cc1F)C(=O)CC2`: the half-inhibitory concentration (IC50) was less than 1000 nM in data set [2] and greater than 200 nM in data set [1].
In turn, `O=C1CCc2cc(NS(=O)(=O)C(F)(F)F)c(Sc3ccc(F)cc3F)cc21` came in with an IC50 in [1] of 40 nM.
Consider `CS(=O)(=O)Nc1cc2c(cc1Sc1ccc(F)cc1F)C(=O)CC2`, for which the bioavailability is 90% in data set [3] and 145% in data set [8]. In the data set on Rattus norvegicus [4], this molecule showed an ED30 of 0.21 MPK. Besides, the clearance in [5] and in data set [6] was 0.5 mL/min in each case. The half-life (in general, the time needed for the level to fall by half in the phase considered) in data set [7] was 6.9 h. The molecule also had an IC50 in data set [2] greater than 50000 nM.
Turning to `CS(=O)(=O)Nc1cc2c(cc1Sc1ccc(C(=O)O)cc1)C(=O)CC2`, in [1], the IC50 was greater than 10000 nM.
Still for that read-out and setting: the result for `CS(=O)(=O)Nc1cc2c(cc1Sc1cncs1)C(=O)CC2` reads greater than 10000 nM.
Consider `CS(=O)(=O)Nc1cc2c(cc1OC1CCCC1)C(=O)CC2`, for which the IC50 is greater than 10000 nM in data set [2] and greater than 1000 nM in [1].
On to `CC(C)c1ccc(Sc2cc3c(cc2NS(C)(=O)=O)CCC3=O)cc1`, for which the IC50 in data set [1] is greater than 10000 nM.
For `Cc1ccccc1Sc1cc2c(cc1NS(C)(=O)=O)CCC2=O`, in data set [2], the IC50 is greater than 50000 nM.
`CS(=O)(=O)Nc1cc2c(cc1Sc1ccc(Cl)cc1Cl)C(=O)CC2` returned an ED30 in the data set on Rattus norvegicus [9] of 0.1 MPK. Besides, the IC50 in data set [2] is 40000 nM; in data set [1] it was 10 nM.
`CS(=O)(=O)Nc1cc2c(cc1OC1CCOCC1)C(=O)CC2` gave an IC50 in [1] greater than 10000 nM.
In the case of `CS(=O)(=O)Nc1cc2c(cc1SC1CCCCC1)C(=O)CC2`, the ED30 in the data set with Rattus norvegicus [9] was greater than 3 MPK. For the same molecule, the IC50 is greater than 50000 nM in [2] and 50 nM in data set [1].
In [1], `COc1ccccc1Sc1cc2c(cc1NS(C)(=O)=O)CCC2=O` displayed an IC50 greater than 10000 nM.
In turn, `Cc1ccc(Sc2cc3c(cc2NS(C)(=O)=O)CCC3=O)cc1` registered an ED30 in the data set with Rattus norvegicus [9] of 10 MPK. The molecule further came in with an IC50 in data set [2] greater than 1000 nM.
The molecule `O=C1CCc2cc(NC(=O)C(F)(F)F)c(Sc3ccc(F)cc3F)cc21` registered an IC50 in data set [1] greater than 10000 nM.
In data set [1], `Cc1cccc(Sc2cc3c(cc2NS(C)(=O)=O)CCC3=O)c1` returned an IC50 greater than 10000 nM.
Take `CS(=O)(=O)Nc1cc2c(cc1Sc1ccccc1F)C(=O)CC2`: the IC50 is greater than 50000 nM in data set [2] and 100 nM in data set [1].
On to `CS(=O)(=O)Nc1cc2c(cc1[S+]([O-])c1ccc(F)cc1F)C(=O)CC2` (stereo unspecified), for which, in [10], the inhibition – broadly, the drop in the measured response relative to a control, in per cent – was found to be 27%.
In data set [1], `CS(=O)(=O)Nc1cc2c(cc1Oc1ccc(S(C)(=O)=O)cc1)C(=O)CC2` came in with an IC50 greater than 10000 nM.
In data set [1], `CC(C)(C)c1ccc(Sc2cc3c(cc2NS(C)(=O)=O)CCC3=O)cc1` registered an IC50 greater than 10000 nM.
Same read-out and setting: the value for `CC(=O)Nc1cc2c(cc1Sc1ccc(F)cc1F)C(=O)CC2` was greater than 10000 nM; that for `CS(=O)(=O)Nc1cc2c(cc1S(=O)(=O)c1ccc(F)cc1F)C(=O)CC2` was greater than 10000 nM.
Molecule `CS(=O)(=O)Nc1cc2c(cc1Sc1ccc(Br)cc1)C(=O)CC2` yielded an ED30 in the data set on Rattus norvegicus [9] of 3 MPK. Besides, the IC50 was greater than 10000 nM in data set [2] and 10 nM in data set [1].
In the case of `CS(=O)(=O)Nc1cc2c(cc1Sc1c(F)cccc1F)C(=O)CC2`, the IC50 is greater than 50000 nM in [2] and 100 nM in data set [1].
In data set [1], `CS(=O)(=O)Nc1cc2c(cc1Sc1cscn1)C(=O)CC2` registered a 50% inhibitory concentration (IC50) greater than 10000 nM.
In the case of `CS(=O)(=O)Nc1cc2c(cc1Sc1ccc(F)cc1)C(=O)CC2`, the IC50 is greater than 50000 nM in data set [2] and 1000 nM in data set [1].
Take `COc1ccc(Sc2cc3c(cc2NS(C)(=O)=O)CCC3=O)cc1`: in [1], half-maximal inhibition (IC50) required 100 nM.
In [1], `CS(=O)(=O)Nc1cc2c(cc1Sc1ccccn1)C(=O)CC2` displayed an IC50 of 100 nM.
In [1], `CS(=O)(=O)Nc1cc2c(cc1Sc1cccc(F)c1)C(=O)CC2` showed an IC50 greater than 10000 nM.
For `CS(=O)(=O)Nc1cc2c(cc1OC1CCCCC1)C(=O)CC2`, the ED30 in the data set on Rattus norvegicus [9] is on record as 10 MPK. In addition, the values for the IC50 in data set [2] and in [1] were greater than 1000 nM and 50 nM, respectively.
For the molecule `CCc1ccc(Sc2cc3c(cc2NS(C)(=O)=O)CCC3=O)cc1`, the IC50 in data set [1] amounted to 100 nM.
In turn, `CS(=O)(=O)Nc1cc2c(cc1Sc1nccs1)C(=O)CC2` showed an ED30 in the data set with Rattus norvegicus [9] of 0.85 MPK. For the same molecule, the results for the IC50 in [2] and in data set [1] were greater than 10000 nM and 100 nM, respectively.
The molecule `CS(=O)(=O)Nc1cc2c(cc1Sc1ccsc1)C(=O)CC2` gave an inhibition in [10] of 46%.
Consider `CS(=O)(=O)Nc1cc2c(cc1Oc1ccc(F)cc1F)C(=O)CC2` [FLOSULIDE], for which the bioavailability was determined as 92% in data set [3] and 63% in data set [8]. The clearance in data set [11] and in [12] was 1.2 mL/min in each case. This molecule had a half-life in data set [7] of 4.9 h. Moreover, the ED30 in the data set on Rattus norvegicus [9] is listed as 0.6 MPK. In addition, the IC50 in [2] was greater than 50000 nM.
`CS(=O)(=O)Nc1cc2c(cc1Sc1ccncc1)C(=O)CC2` came in with an IC50 in [1] of 1000 nM.
On to `COc1ccc2c(c1)c(CC(=O)O)c(C)n2C(=O)c1ccc(Cl)cc1` [INDOMETHACIN], for which the ED50 (in general, the dose at which the effect has come halfway, by size or by number of responders) in the data set with Rattus norvegicus [9] was determined as 2 mg/kg; with Rattus norvegicus [13], 7 mg/kg; with Rattus norvegicus [14], 1.47 mg/kg.
Take `CS(=O)(=O)Nc1cc2c(cc1Sc1cccnc1)C(=O)CC2`: the inhibition in [10] worked out at 30%.
